Measured values published in patent US20140093884A1, “Process for Identifying Novel Anti-Inflammatory Molecules with Reduced Direct Transrepression of Genes Induced by Glucocorticoids” (UNIVERSITE DE STRASBOURG, priority 2011, published 2014).

Assays:
Format in all cases: in vivo, mouse
Set-up in all cases: key: ♦: not repressed
[1] = test system: IR0, IR1 and IR2 nGRE containing genes; test: Q-RT-PCR of IR nGRE-containing genes in liver of 18 hr-Dex-treated WT mice
Text: (§1) Real time PCR. Total RNA was reverse transcribed using hexamers, followed by Q-PCR, as reported (Li et al., 2005).
(§2) A comparison of mouse and human orthologues indicated conservations of such IR elements (51 IR0, 379 IR1 and 566 IR2). Within these orthologue gene families, 35 IR0, 50 IR1 and 50 IR2 nGRE-containing mouse genes (Table 4) were randomly chosen to investigate whether (i) they were expressed in epidermis, intestinal epithelium and liver, (ii) their expression was inhibited by the GC agonist Dexamethasone (Dex), (iii) this inhibition could be relieved by RU486 co-administration, and also if it could be correlated with GR and corepressor binding to their putative IR nGREs.

[2] = test system: IR0, IR1 and IR2 nGRE containing genes; test: Q-RT-PCR of IR nGRE-containing genes in epidermis of 18 hr-Dex-treated WT mice
Text: as §1, §2

[3] = test system: IR0, IR1 and IR2 nGRE containing genes; test: Q-RT-PCR of IR nGRE-containing genes in intestinal epithelium of 18 hr-Dex-treated WT mice
Text: as §1, §2

C[C@@H]1C[C@H]2[C@@H]3CCC4=CC(=O)C=C[C@]4(C)[C@@]3(F)[C@@H](O)C[C@]2(C)[C@@]1(O)C(=O)CO [Dex, dexamethasone]
♦: AIP transcript level, not repressed ([1]; IR0 nGRE gene) | CITED1 transcript level, not repressed ([1]; IR0 nGRE gene) | DLAT transcript level, not repressed ([1]; IR0 nGRE gene) | FBXL18 transcript level, not repressed ([1]; IR0 nGRE gene) | GPIHBP1 transcript level, not repressed ([1]; IR0 nGRE gene) | INHBE transcript level, not repressed ([1]; IR0 nGRE gene) | MTG1 transcript level, not repressed ([1]; IR0 nGRE gene) | NMYC transcript level, not repressed ([1]; IR0 nGRE gene) | PTMS transcript level, not repressed ([1]; IR0 nGRE gene) | TCF25 transcript level, not repressed ([1]; IR0 nGRE gene) | ZBED4 transcript level, not repressed ([1]; IR0 nGRE gene) | ZFP113 transcript level, not repressed ([1]; IR0 nGRE gene) | ZFP784 transcript level, not repressed ([1]; IR0 nGRE gene) | ADRA2A transcript level, not repressed ([1]; IR1 nGRE gene) | AGPAT2 transcript level, not repressed ([1]; IR1 nGRE gene) | BMP3 transcript level, not repressed ([1]; IR1 nGRE gene) | CADM4 transcript level, not repressed ([1]; IR1 nGRE gene) | CDH11 transcript level, not repressed ([1]; IR1 nGRE gene) | CDK9 transcript level, not repressed ([1]; IR1 nGRE gene) | CTSA transcript level, not repressed ([1]; IR1 nGRE gene) | DYNLT3 transcript level, not repressed ([1]; IR1 nGRE gene) | GPR108 transcript level, not repressed ([1]; IR1 nGRE gene) | GPR153 transcript level, not repressed ([1]; IR1 nGRE gene) | HSD11B2 transcript level, not repressed ([1]; IR1 nGRE gene) | KLC3 transcript level, not repressed ([1]; IR1 nGRE gene) | LRRC transcript level, not repressed ([1]; IR1 nGRE gene) | MT2 transcript level, not repressed ([1]; IR1 nGRE gene) | MTHFR transcript level, not repressed ([1]; IR1 nGRE gene) | MXI1 transcript level, not repressed ([1]; IR1 nGRE gene) | SCP2 transcript level, not repressed ([1]; IR1 nGRE gene) | SGK3 transcript level, not repressed ([1]; IR1 nGRE gene) | SREPF1 transcript level, not repressed ([1]; IR1 nGRE gene) | SSTR4 transcript level, not repressed ([1]; IR1 nGRE gene) | STAB1 transcript level, not repressed ([1]; IR1 nGRE gene) | CCR10 transcript level, not repressed ([1]; IR2 nGRE gene) | COL4A3BP transcript level, not repressed ([1]; IR2 nGRE gene) | DPAGT1 transcript level, not repressed ([1]; IR2 nGRE gene) | ELMOD3 transcript level, not repressed ([1]; IR2 nGRE gene) | ERP27 transcript level, not repressed ([1]; IR2 nGRE gene) | FOXJ1 transcript level, not repressed ([1]; IR2 nGRE gene) | FOXQ1 transcript level, not repressed ([1]; IR2 nGRE gene) | GGT1 transcript level, not repressed ([1]; IR2 nGRE gene) | GOT1 transcript level, not repressed ([1]; IR2 nGRE gene) | GPR97 transcript level, not repressed ([1]; IR2 nGRE gene) | GRASP transcript level, not repressed ([1]; IR2 nGRE gene) | HSPB2 transcript level, not repressed ([1]; IR2 nGRE gene) | HSPB3 transcript level, not repressed ([1]; IR2 nGRE gene) | MUC20 transcript level, not repressed ([1]; IR2 nGRE gene) | POMGNT1 transcript level, not repressed ([1]; IR2 nGRE gene) | PRKRA transcript level, not repressed ([1]; IR2 nGRE gene) | SOCS1 transcript level, not repressed ([1]; IR2 nGRE gene) | TNFRSF25 transcript level, not repressed ([1]; IR2 nGRE gene) | AIP transcript level, not repressed ([2]; IR0 nGRE gene) | DDI1 transcript level, not repressed ([2]; IR0 nGRE gene) | DLAT transcript level, not repressed ([2]; IR0 nGRE gene) | FBXL18 transcript level, not repressed ([2]; IR0 nGRE gene) | FSD2 transcript level, not repressed ([2]; IR0 nGRE gene) | GPIHBP1 transcript level, not repressed ([2]; IR0 nGRE gene) | HCST transcript level, not repressed ([2]; IR0 nGRE gene) | KLF5 transcript level, not repressed ([2]; IR0 nGRE gene) | LAG3 transcript level, not repressed ([2]; IR0 nGRE gene) | MTG1 transcript level, not repressed ([2]; IR0 nGRE gene) | NEU1 transcript level, not repressed ([2]; IR0 nGRE gene) | PTMS transcript level, not repressed ([2]; IR0 nGRE gene) | SLC25A5 transcript level, not repressed ([2]; IR0 nGRE gene) | TCF25 transcript level, not repressed ([2]; IR0 nGRE gene) | TRPM7 transcript level, not repressed ([2]; IR0 nGRE gene) | ZBED4 transcript level, not repressed ([2]; IR0 nGRE gene) | ZFP113 transcript level, not repressed ([2]; IR0 nGRE gene) | ZFP467 transcript level, not repressed ([2]; IR0 nGRE gene) | ZFP784 transcript level, not repressed ([2]; IR0 nGRE gene) | AGPAT2 transcript level, not repressed ([2]; IR1 nGRE gene) | AKAP6 transcript level, not repressed ([2]; IR1 nGRE gene) | ARHGAP23 transcript level, not repressed ([2]; IR1 nGRE gene) | ATN1 transcript level, not repressed ([2]; IR1 nGRE gene) | B4GALT2 transcript level, not repressed ([2]; IR1 nGRE gene) | BCL2L1 transcript level, not repressed ([2]; IR1 nGRE gene) | BEST2 transcript level, not repressed ([2]; IR1 nGRE gene) | BMP3 transcript level, not repressed ([2]; IR1 nGRE gene) | CACNA2D3 transcript level, not repressed ([2]; IR1 nGRE gene) | CADM4 transcript level, not repressed ([2]; IR1 nGRE gene) | CDK9 transcript level, not repressed ([2]; IR1 nGRE gene) | CTSA transcript level, not repressed ([2]; IR1 nGRE gene) | DYNLT3 transcript level, not repressed ([2]; IR1 nGRE gene) | GNG10 transcript level, not repressed ([2]; IR1 nGRE gene) | GPR108 transcript level, not repressed ([2]; IR1 nGRE gene) | GPR153 transcript level, not repressed ([2]; IR1 nGRE gene) | JUND transcript level, not repressed ([2]; IR1 nGRE gene) | KLC3 transcript level, not repressed ([2]; IR1 nGRE gene) | LRRC transcript level, not repressed ([2]; IR1 nGRE gene) | MT2 transcript level, not repressed ([2]; IR1 nGRE gene) | MTHFR transcript level, not repressed ([2]; IR1 nGRE gene) | MXI1 transcript level, not repressed ([2]; IR1 nGRE gene) | NKRF transcript level, not repressed ([2]; IR1 nGRE gene) | SCP2 transcript level, not repressed ([2]; IR1 nGRE gene) | SREPF1 transcript level, not repressed ([2]; IR1 nGRE gene) | SSTR4 transcript level, not repressed ([2]; IR1 nGRE gene) | STAB1 transcript level, not repressed ([2]; IR1 nGRE gene) | USF1 transcript level, not repressed ([2]; IR1 nGRE gene) | COL4A3BP transcript level, not repressed ([2]; IR2 nGRE gene) | ELMOD3 transcript level, not repressed ([2]; IR2 nGRE gene) | FKBP2 transcript level, not repressed ([2]; IR2 nGRE gene) | FOXQ1 transcript level, not repressed ([2]; IR2 nGRE gene) | GGT1 transcript level, not repressed ([2]; IR2 nGRE gene) | GIT2 transcript level, not repressed ([2]; IR2 nGRE gene) | GLU1 transcript level, not repressed ([2]; IR2 nGRE gene) | GOT1 transcript level, not repressed ([2]; IR2 nGRE gene) | GPR97 transcript level, not repressed ([2]; IR2 nGRE gene) | GRASP transcript level, not repressed ([2]; IR2 nGRE gene) | HSPB2 transcript level, not repressed ([2]; IR2 nGRE gene) | POMGNT1 transcript level, not repressed ([2]; IR2 nGRE gene) | PRKRA transcript level, not repressed ([2]; IR2 nGRE gene) | RORA transcript level, not repressed ([2]; IR2 nGRE gene) | SLC2A8 transcript level, not repressed ([2]; IR2 nGRE gene) | TGM6 transcript level, not repressed ([2]; IR2 nGRE gene) | AIP transcript level, not repressed ([3]; IR0 nGRE gene) | ANO4 transcript level, not repressed ([3]; IR0 nGRE gene) | CITED1 transcript level, not repressed ([3]; IR0 nGRE gene) | DLAT transcript level, not repressed ([3]; IR0 nGRE gene) | FBXL18 transcript level, not repressed ([3]; IR0 nGRE gene) | GPIHBP1 transcript level, not repressed ([3]; IR0 nGRE gene) | KLF5 transcript level, not repressed ([3]; IR0 nGRE gene) | LAG3 transcript level, not repressed ([3]; IR0 nGRE gene) | MAPK4 transcript level, not repressed ([3]; IR0 nGRE gene) | MTG1 transcript level, not repressed ([3]; IR0 nGRE gene) | NDUFA4L2 transcript level, not repressed ([3]; IR0 nGRE gene) | NEU1 transcript level, not repressed ([3]; IR0 nGRE gene) | PPIL5 transcript level, not repressed ([3]; IR0 nGRE gene) | PTMS transcript level, not repressed ([3]; IR0 nGRE gene) | SLC25A5 transcript level, not repressed ([3]; IR0 nGRE gene) | SP9 transcript level, not repressed ([3]; IR0 nGRE gene) | SPARC transcript level, not repressed ([3]; IR0 nGRE gene) | TCF25 transcript level, not repressed ([3]; IR0 nGRE gene) | TRPM7 transcript level, not repressed ([3]; IR0 nGRE gene) | ZBED4 transcript level, not repressed ([3]; IR0 nGRE gene) | ZFP113 transcript level, not repressed ([3]; IR0 nGRE gene) | ZFP467 transcript level, not repressed ([3]; IR0 nGRE gene) | ZFP784 transcript level, not repressed ([3]; IR0 nGRE gene) | ADRA2A transcript level, not repressed ([3]; IR1 nGRE gene) | AGPAT2 transcript level, not repressed ([3]; IR1 nGRE gene) | ATN1 transcript level, not repressed ([3]; IR1 nGRE gene) | BCL2L1 transcript level, not repressed ([3]; IR1 nGRE gene) | BMP3 transcript level, not repressed ([3]; IR1 nGRE gene) | CADM4 transcript level, not repressed ([3]; IR1 nGRE gene) | CDH11 transcript level, not repressed ([3]; IR1 nGRE gene) | CDK9 transcript level, not repressed ([3]; IR1 nGRE gene) | CTSA transcript level, not repressed ([3]; IR1 nGRE gene) | DYNLT3 transcript level, not repressed ([3]; IR1 nGRE gene) | GPR108 transcript level, not repressed ([3]; IR1 nGRE gene) | GPR153 transcript level, not repressed ([3]; IR1 nGRE gene) | KLC3 transcript level, not repressed ([3]; IR1 nGRE gene) | LRRC transcript level, not repressed ([3]; IR1 nGRE gene) | MTHFR transcript level, not repressed ([3]; IR1 nGRE gene) | MXI1 transcript level, not repressed ([3]; IR1 nGRE gene) | NKRF transcript level, not repressed ([3]; IR1 nGRE gene) | SCP2 transcript level, not repressed ([3]; IR1 nGRE gene) | SOCS3 transcript level, not repressed ([3]; IR1 nGRE gene) | SREPF1 transcript level, not repressed ([3]; IR1 nGRE gene) | SSTR4 transcript level, not repressed ([3]; IR1 nGRE gene) | STAB1 transcript level, not repressed ([3]; IR1 nGRE gene) | COL4A3BP transcript level, not repressed ([3]; IR2 nGRE gene) | DPAGT1 transcript level, not repressed ([3]; IR2 nGRE gene) | ELMOD3 transcript level, not repressed ([3]; IR2 nGRE gene) | ERP27 transcript level, not repressed ([3]; IR2 nGRE gene) | FSTL1 transcript level, not repressed ([3]; IR2 nGRE gene) | GIT2 transcript level, not repressed ([3]; IR2 nGRE gene) | GLU1 transcript level, not repressed ([3]; IR2 nGRE gene) | GOT1 transcript level, not repressed ([3]; IR2 nGRE gene) | GPR68 transcript level, not repressed ([3]; IR2 nGRE gene) | GUK1 transcript level, not repressed ([3]; IR2 nGRE gene) | HSPB2 transcript level, not repressed ([3]; IR2 nGRE gene) | HSPB3 transcript level, not repressed ([3]; IR2 nGRE gene) | ITPKA transcript level, not repressed ([3]; IR2 nGRE gene) | MUC20 transcript level, not repressed ([3]; IR2 nGRE gene) | PRKRA transcript level, not repressed ([3]; IR2 nGRE gene) | SLC2A8 transcript level, not repressed ([3]; IR2 nGRE gene) | SLC25A34 transcript level, not repressed ([3]; IR2 nGRE gene) | SOCS1 transcript level, not repressed ([3]; IR2 nGRE gene) | TGM6 transcript level, not repressed ([3]; IR2 nGRE gene) | TNFRSF25 transcript level, not repressed ([3]; IR2 nGRE gene)
